Values of other authors, collected in PMC3322358 (Chemistry & biology, 2008).

Test system: CFTR
Details: ref Muanprasat et al., 2004

## O=C(CNc1ccc2ccccc2c1)N/N=C/c1cc(Br)c(O)c(Br)c1O [GlyH-101]
  time constant of CFTR channel block: 8 to 10 ms
